What was measured:
p21 = p21 level by Western blot in PC-3 and LNCaP cells; assay type: cell-based, human
Method: Figure 4 Cell Cycle analysis in 8c-treated prostate cancer cells. (A) PC-3 and LNCaP cells were treated with compound 8c for 24 hours and cell cycle analysis was analyzed by flow cytometry using Propidium Iodide (PI). Percentage of cells in subG0, G1, S, and G2/M phases is indicated in the histogram. (B) Levels of Cyclin D1, p-p53, p53, p21 and cleaved Caspase 3 (17 kDa fragment) were determined by Western blot. Upper panel, representative Western blot of two different experiments. β-tubulin (β-Tub) serves as a loading control. […]
Cyclin D1 activity is modulated by several inhibitors such as p21 which negatively regulate cell cycle progression by interacting with cyclin dependent kinases (cdks). […] To further study the role of compound 8c in cell cycle, we determined the expression of p21, p53 and the levels of cleaved caspase 3 in the prostate cells. P53 was only determined in LNCaP cells since PC-3 cells are p53-negative[40].
Cells were lysed in Lysis buffer (50 mM Tris pH 7.4, 0.8 M NaCl, 5 mM MgCl2, 0.1% Triton X-100) containing Protease Inhibitor and Phosphatase inhibitor Cocktails (Roche, Basel, Switzerland). Protein concentrations were measured by BioRad™ protein assay kit (Richmond, CA, USA). […] Films were analyzed by densitometry. […]

Androgen Receptor (AR) = test: Androgen Receptor expression by Western blot in LNCaP cells; assay type: cell-based, human; settings: 25 µM, 24 hours
Method: Figure 5 AMPK activation by compound 8c in prostate cancer cells. (A) PC-3 and LNCaP cells were treated with vehicle, 25 µM compound 8c, 25 µM compound 8c + 5 μM Dorsomorphin (8c + D) or 5 μM Dorsomorphin (D), for 1 hour or 24 hours and levels of the phosphorylated AMPK (pAMPK), phosphorylated ACC (pACC), phosphorylated Raptor (pRaptor) forms and HIF1α were determined by Western blot. Upper panel, representative Western blot of three different experiments. β-tubulin (β-Tub) serves as a loading control. Lower panel, densitometric analyses of bands represented as the mean of the ratio pAMPK/AMPK or pACC/ACC. (B) Cell viability monitored by MTT assay in PC-3 and LNCaP cells treated with vehicle, 25 µM and 50 μM compound 8c alone or in the presence of 5 μM Dorsomorphin or transfected with control siRNA (siC) or α1AMPK-selective siRNA (siAMPK). (C) LNCaP cells were treated with vehicle, 25 µM compound 8c, 25 µM compound 8c + 5 μM Dorsomorphin (8c + D) or 5 μM Dorsomorphin (D), for 24 hours and levels of Androgen Receptor (AR), Prostate specific antigen (PSA) and Prostate specific membrane antigen (PSMA) were determined by Western blot.Values were normalized with the control and represent the mean ± SD of at least three independent experiments. *p < 0.05 and **p < 0.01 compared to control and ^#p < 0.05 and ^##p < 0.01 compared with 8c-treated group by the Student’s t-test. […]

[1] = target: T1, human recombinant AMPK isoform α1β1γ1 (Homo sapiens, UniProt P54619+Q13131+Q9Y478); test: In vitro AMPK enzymatic assay (AMARA peptide, Delfia), α1β1γ1; assay type: biochemical; settings: 30 μM, p < 0.001
T1 construct: purchased Invitrogen
T1 sequence (Q13131 whole entry, canonical isoform): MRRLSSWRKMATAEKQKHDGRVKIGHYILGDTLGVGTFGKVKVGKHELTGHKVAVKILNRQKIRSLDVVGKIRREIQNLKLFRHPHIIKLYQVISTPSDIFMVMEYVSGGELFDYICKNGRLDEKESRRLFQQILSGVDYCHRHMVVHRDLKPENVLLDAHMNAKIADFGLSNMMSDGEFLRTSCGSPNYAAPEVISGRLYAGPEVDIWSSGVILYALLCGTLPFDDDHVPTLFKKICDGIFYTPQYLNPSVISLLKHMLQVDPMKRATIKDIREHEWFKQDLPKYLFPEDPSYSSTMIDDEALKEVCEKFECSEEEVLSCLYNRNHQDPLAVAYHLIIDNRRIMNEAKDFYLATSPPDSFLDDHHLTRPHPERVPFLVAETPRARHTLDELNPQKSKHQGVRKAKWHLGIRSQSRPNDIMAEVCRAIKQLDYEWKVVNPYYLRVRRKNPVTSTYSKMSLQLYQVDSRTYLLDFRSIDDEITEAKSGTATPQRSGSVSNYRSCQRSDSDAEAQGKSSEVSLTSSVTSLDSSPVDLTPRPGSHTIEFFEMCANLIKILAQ
T1 sequence (Q9Y478 whole entry, canonical isoform): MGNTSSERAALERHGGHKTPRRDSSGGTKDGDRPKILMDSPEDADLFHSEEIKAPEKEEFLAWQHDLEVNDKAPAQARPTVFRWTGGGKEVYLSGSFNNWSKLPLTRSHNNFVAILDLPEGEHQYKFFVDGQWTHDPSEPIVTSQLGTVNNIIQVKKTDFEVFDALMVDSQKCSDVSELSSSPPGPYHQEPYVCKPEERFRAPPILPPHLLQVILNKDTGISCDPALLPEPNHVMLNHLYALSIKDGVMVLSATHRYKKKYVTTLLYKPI
T1 sequence (P54619 whole entry, canonical isoform): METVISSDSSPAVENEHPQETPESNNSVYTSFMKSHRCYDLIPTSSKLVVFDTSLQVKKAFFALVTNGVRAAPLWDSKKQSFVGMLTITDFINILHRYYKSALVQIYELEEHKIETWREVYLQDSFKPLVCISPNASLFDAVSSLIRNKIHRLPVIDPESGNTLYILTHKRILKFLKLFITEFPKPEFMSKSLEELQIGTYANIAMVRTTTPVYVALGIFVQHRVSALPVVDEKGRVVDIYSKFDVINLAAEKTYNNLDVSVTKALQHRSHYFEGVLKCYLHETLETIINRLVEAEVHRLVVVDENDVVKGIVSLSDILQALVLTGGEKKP
Method: This assay evaluated the ability of the compound to activate AMPK and in turn phosphorylate the synthetic substrate peptide [sequence].
Data are the mean ± S.D. of four experiments. **p < 0.01 and ***p < 0.001 compared by the Student’s t-test.
The effect of compounds in the in vitro human recombinant AMPK activity assay was measured by monitoring phosphorylation of the “AMARA” peptide using Delfia technology. […] Final concentration of DMSO was 1%. Reactions were initiated by the addition of AMPK (0.1U). Following mixing, the plates were incubated for 30 min at room temperature. Enzyme activity was assayed by using an anti-phospho-serine antibody to measure the quantity of phosphate incorporated into the AMARAA peptide.

O=C1Nc2ccccc2C1(F)Cc1ccc(-c2ccccc2)o1 (stereo not drawn) [Compound 8c, 3-fluoro-3-((5-phenylfuran-2-yl)methyl)indolin-2-one]
p21 protein level (p21): remarkably increase in p21 protein
expression of AR (Androgen Receptor (AR)): markedly reduced the expression of AR
increase of AMPK α1β1γ1 activity [1]: 75%

Source: paper PMC5847527, “Identification of a novel 2-oxindole fluorinated derivative as in vivo antitumor agent for prostate cancer acting via AMPK activation” (Scientific Reports, 2018)
